The source of these data is publication PMC3195871 (Biochemical and biophysical research communications, 2011).

The target of the experiment is T1, ArathEULS3 (Arabidopsis thaliana, UniProt Q945P1).
T1 sequence (Q945P1 2-317): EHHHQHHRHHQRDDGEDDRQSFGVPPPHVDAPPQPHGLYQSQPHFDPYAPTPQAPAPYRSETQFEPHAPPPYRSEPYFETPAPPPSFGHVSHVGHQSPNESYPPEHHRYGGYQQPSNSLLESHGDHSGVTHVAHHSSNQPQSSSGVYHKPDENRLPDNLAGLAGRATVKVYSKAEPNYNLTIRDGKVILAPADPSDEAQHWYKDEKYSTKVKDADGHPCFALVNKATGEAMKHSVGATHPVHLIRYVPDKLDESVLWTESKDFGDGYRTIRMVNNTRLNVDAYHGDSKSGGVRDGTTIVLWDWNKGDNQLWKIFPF
Description: glycan microarray v4.[…], fluorescence. Particulars: glycan immobilised through spacer; relative to glycan with highest signal. It counts as binding.

As for “Galα1-3Galβ1-3GlcNAcβ1-2Manα1-3(Galα1-3Galβ1-3GlcNAcβ1-2Manα1-6)Manβ1-4GlcNAcβ1-4GlcNAc-Sp19”, the “%RFU ^* / ArathEUL” value is 46,6%.

In the case of `CC(=O)N[C@H]1[C@H](OCCN)O[C@H](CO)[C@@H](O[C@@H]2O[C@H](CO)[C@H](O)[C@H](O[C@]3(C(=O)O)C[C@H](O)[C@@H](NC(C)=O)[C@H]([C@H](O)[C@H](O)CO)O3)[C@H]2O)[C@@H]1O[C@@H]1O[C@@H](C)[C@@H](O)[C@@H](O)[C@@H]1O` [Neu5Acα2-3Galβ1-4(Fucα1-3)GlcNAcβ-Sp0], the “%RFU ^* / ArathEUL” value is recorded as 46,6%. The figure for “Galβ1-4(Fucα1-3)GlcNAcβ1-4Galβ1-4(Fucα1-3)GlcNAcβ1-4Galβ1-4(Fucα1-3)GlcNAcβ-Sp0” is 22,7%; for `CC(=O)N[C@H]1[C@H](OCCOCCOCCOCCOCCOCCN)O[C@H](CO)[C@@H](O[C@@H]2O[C@H](CO)[C@H](O)[C@H](O)[C@H]2O)[C@@H]1O` [Galβ1-4GlcNAcβ-(OCH2CH2)6NH2] it is 15,6%; for “Neu5Acα2-3-Galβ1-3(Galβ1-4(Fucα1-3)GlcNAcβ1-6)GalNAc-Sp14” it is 14,8%.

“Fucα1-2Galβ1-4(Fucα1-3)GlcNAcβ1-3GalNAcα-Sp14”: the “%RFU ^* / ArathEUL” value is reported as 100,0%. In the case of `CC(=O)N[C@H]1[C@H](O[C@H]2[C@@H](O)[C@@H](CO)O[C@@H](O[C@H]3[C@H](O[C@@H]4O[C@@H](C)[C@@H](O)[C@@H](O)[C@@H]4O)[C@@H](NC(C)=O)[C@H](O[C@H]4[C@@H](O)[C@@H](CO)O[C@@H](O[C@H]5[C@H](O[C@@H]6O[C@@H](C)[C@@H](O)[C@@H](O)[C@@H]6O)[C@@H](NC(C)=O)[C@H](OCCN)O[C@@H]5CO)[C@@H]4O)O[C@@H]3CO)[C@@H]2O)O[C@H](CO)[C@@H](O[C@@H]2O[C@H](CO)[C@H](O[C@H]3O[C@H](CO)[C@@H](O)[C@H](O)[C@H]3NC(C)=O)[C@H](O)[C@H]2O)[C@@H]1O` [GlcNAcα1-4Galβ1-4GlcNAcβ1-3Galβ1-4(Fucα1-3)GlcNAcβ1-3Galβ1-4(Fucα1-3)GlcNAcβ-Sp0], the “%RFU ^* / ArathEUL” value was 37,2%. The figure for `CC(=O)N[C@H]1[C@H](O[C@H]2[C@@H](O)[C@@H](CO)O[C@H](OCCCN)[C@@H]2NC(C)=O)O[C@H](CO)[C@@H](O)[C@@H]1O` [GlcNAcβ1-3GalNAcα-Sp8] is 37,0%; for “GalNAcα1-3(Fucα1-2)Galβ1-4(Fucα1-3)GlcNAcβ1-3GalNAc-Sp14” it is 73,6%; for Galβ1-4(Fucα1-3)GlcNAcβ1-6GalNAc-Sp14 it is 8,4%. Take “Fucα1-2Galβ1-4(Fucα1-3)GlcNAcβ1-2Manα1-6(Fucα1-2Galβ1-4(Fucα1-3)GlcNAcβ1-2Manα1-3)Manβ1-4GlcNAcβ1-4(Fucα1-6)GlcNAcβ-6AA”: the “%RFU ^* / ArathEUL” value is 18,9%.

In the case of “Galβ1-4GlcNAcβ1-2Manα1-3(Galβ1-4GlcNAcβ1-2Manα1-6)Manβ1-4GlcNAcβ1-4GlcNAcβ-Sp12”, the “%RFU ^* / ArathEUL” value was 9,1%. The result for “Galβ1-4GlcNAcβ1-4(Galβ1-4GlcNAcβ1-2)Manα1-3(GlcNAcβ1-4)(Galβ1-4GlcNAcβ1-6(Galβ1-4-GlcNAcβ1-2)Manα1-6)Manβ1-4GlcNAcβ1-4GlcNAc-Sp21” reads 67,5%.
